# Read-outs that look alike come from different tables or passages of the source.
# Legend:
# BT474-J4 = test: Cell apoptosis induction, caspase-3/7 activation, BT474-J4; format: cell-based, human; conditions: BT474-J4, 24 hours
# Method: (§1) Human breast tumor cell lines BT474, HCC1419, HCC1954, JIMT1, MDA-MB-361, SK-BR-3 and UACC893 were cultured in RPMI 1640 medium containing 10% FBS. BT-474-J4, a breast cancer cell line acquired resistant to Compound A was cultured in RPMI 1640 medium containing 10% FBS and 1 μM of Compound A. KPL4 breast cancer line was cultured in DMEM containing 5% FBS. All lines were kept in a humidified incubator at 37° C. in 95% air and 5% CO2. JIMT-1 is a cell line established from a tumor of a patient with trastuzumab-resistant breast cancer. BT-474-J4 is a single cell clone derived from a culture of BT-474 cells that were selected to grow in Compound A to a concentration of 3 μM.
# (§2) For investigation of the induction of apoptosis, cells were plated at 5,000 cells per well in a 96-well tissue culture plate and allowed to attach for approximately 24 hours. Cells were exposed to ten, two-fold or three-fold serial dilutions of compound or the combination of the two agents at a constant molar to molar ratio of 10:1 Compound A to Compound B in RPMI media containing 10% FBS or DMEM containing 5% FBS for KPL4. Twenty-four hours after compound treatment, caspase 3/7 activity was determined with the Caspase Glo™ 3/7 (Promega, cat G8093) according to the instructions provided by the manufacturer.
# SK-BR-3 = test: Cell growth inhibition assay (Cell Titer Glo), SK-BR-3; format: cell-based; conditions: Homo sapiens, 72 h; SK-BR-3, 3 days, single agent; read-out: Single Agent IC50 (μM), mean ± STD
# Method: as §1
# (§3) All cells were cultured for a minimum of 72 hours prior to cell plating. […] ATP levels were determined by adding Cell Titer Glo® (Promega) according to the manufacturer's protocol. Briefly, Cell Titer Glo® was added to each plate, incubated for 20 minutes then the luminescent signal was read on a SpectraMax L plate reader with a 0.5 sec integration time.
# (§4) Inhibition of cell growth was estimated after treatment with compound or a combination of compounds for three days and comparing the signal to cells treated with vehicle (DMSO). Cell growth was calculated relative to vehicle (DMSO) treated control wells. […]
# KPL-4 = test: Cell apoptosis induction, caspase-3/7 activation, KPL-4; format: cell-based, human
# Method: as §1, §2
# BT474-J4, and MDA-MB-361 = test: Cell growth inhibition, text summary over two lines; format: cell-based; conditions: Homo sapiens, 72 h; over BT474-J4 and MDA-MB-361 lines, 3 days; read-out: IC50 as a single agent
# Method: All cells were cultured for a minimum of 72 hours prior to cell plating. […] Cells were incubated in the presence of compounds for 3 days. ATP levels were determined by adding Cell Titer Glo® (Promega) according to the manufacturer's protocol.
# Cell growth was calculated relative to vehicle (DMSO) treated control wells.
# In general, a CI value <0.9, between 0.9 and 1.1, or >1.1 indicates synergy, additivity and antagonism, respectively. In general, the smaller the CI number, the greater is the strength of synergy.
# MDA-MB-361 = test: Cell growth inhibition assay (Cell Titer Glo), MDA-MB-361; format: cell-based, human; conditions: MDA-MB-361, 3 days, single agent, read-out: Single Agent IC50 (μM), mean ± STD
# Method: as §1
# as §3, with “plating. Cells were assayed in a 96-well tissue culture plate (NUNC 136102) of RPMI medium containing 10% FBS for all cells at 2,000 cells per well except KPL4, which were plated in DMEM containing 5% FBS at 500 cells per well.” for “plating.”
# as §4
# (§5) Combination effects on potency were evaluated using Combination Index (CI) which was calculated with the back-interpolated IC50 values and the mutually non-exclusive equation derived by Chou and Talalay (Chou T C, Talalay P. Quantitative analysis of dose-effect relationships: the combined effects of multiple drugs or enzyme inhibitors. Adv Enzyme Regul 1984; 22:27-55): […]
# KPL4 = test: Cell growth inhibition assay (Cell Titer Glo), KPL4; format: cell-based; conditions: Homo sapiens, 72 h; KPL4, 3 days, single agent; read-out: Single Agent IC50 (μM), mean ± STD
# Method: as §1, §3, §4
# BT474 = test: Cell apoptosis induction, caspase-3/7 activation, BT474; format: cell-based, human; conditions: BT474, 24 hours
# Method: as §1, §2
# BT-474-J4 = test: Cell growth inhibition assay (Cell Titer Glo), BT-474-J4; format: cell-based, human; conditions: BT-474-J4, 3 days, single agent, read-out: Single Agent IC50 (μM), mean ± STD
# Method: as §1
# (§6) All cells were cultured for a minimum of 72 hours prior to cell plating. Cells were assayed in a 96-well tissue culture plate (NUNC 136102) of RPMI medium containing 10% FBS for all cells at 2,000 cells per well except KPL4, which were plated in DMEM containing 5% FBS at 500 cells per well. Approximately 24 hours after plating, cells were exposed to ten, two-fold or three-fold serial dilutions of compound or the combination of the two agents at a constant molar to molar ratio of 1:1 Compound A to Compound B in RPMI media containing 10% FBS or DMEM containing 5% FBS for KPL4. Cells were incubated in the presence of compounds for 3 days. ATP levels were determined by adding Cell Titer Glo® (Promega) according to the manufacturer's protocol. Briefly, Cell Titer Glo® was added to each plate, incubated for 20 minutes then the luminescent signal was read on a SpectraMax L plate reader with a 0.5 sec integration time.
# as §4
# [1] = tested on: HCC1419, SK-BR-3 and BT474 lines; test: Cell growth inhibition, text summary over three lines; format: cell-based; conditions: Homo sapiens, 72 h; over HCC1419, SK-BR-3 and BT474 lines, 3 days; read-out: IC50 as a single agent
# Method: as §1, §6, §4, §5
# (§7) The combination effects on the response scale were quantified by Excess Over Highest Single Agent (EOHSA) [Liu L, Shi H, Liu Y, Anderson A, Peterson J, Greger J, Martin A M, Gilmer T M. Synergistic Effects of Foretinib with HER-Targeted Agents in MET and HER1- or HER2-Coactivated Tumor Cells. […] For single agent and combination treatments, cells were exposed to compounds at a fixed-dose-ratio, and dose response curves were fit to the experimental data and analyzed using regression models described above. […]
# [2] = tested on: KPL-4, UACC893 and HCC1954 lines; test: as above; format: cell-based; conditions: Homo sapiens, 72 h; over KPL-4, UACC893 and HCC1954 lines, 3 days; read-out: IC50 as a single agent
# Method: as §1, §6, §4, §5, §7
# UACC893 = test: Cell growth inhibition assay (Cell Titer Glo), UACC893; format: cell-based; conditions: Homo sapiens, UACC-893, 72 h; UACC893, 3 days, single agent; read-out: Single Agent IC50 (μM), mean ± STD
# Method: as §1, §3, §4
# JIMT-1 = test: Cell growth inhibition assay (Cell Titer Glo), JIMT-1; format: cell-based, human; conditions: JIMT-1, 3 days, single agent, read-out: Single Agent IC50 (μM), mean ± STD
# Method: as §1, §6, §4, §5, §7
# HCC1419 = test: Cell growth inhibition assay (Cell Titer Glo), HCC1419; format: cell-based; conditions: Homo sapiens, 72 h; HCC1419, 3 days, single agent; read-out: Single Agent IC50 (μM), mean ± STD
# Method: as §1, §3, §4
# HCC1954 = test: Cell growth inhibition assay (Cell Titer Glo), HCC1954; format: cell-based; conditions: Homo sapiens, 72 h; HCC1954, 3 days, single agent; read-out: Single Agent IC50 (μM), mean ± STD
# Method: as §1, §3, §4
# BT-474 = test: Cell growth inhibition assay (Cell Titer Glo), BT-474; format: cell-based; conditions: Homo sapiens, 72 h; BT-474, 3 days, single agent; read-out: Single Agent IC50 (μM), mean ± STD
# Method: as §1, §3, §4
SMILES,IC50 (SK-BR-3),"IC50 (MDA-MB-361; Homo sapiens, MDA-MB-361, 72 h)",IC50 (KPL4),"IC50 (BT-474-J4; Homo sapiens, 72 h)",IC50 [1],IC50 [2],IC50 (UACC893),"IC50 (JIMT-1; Homo sapiens, JIMT-1, 72 h)",IC50 (JIMT-1),IC50 (HCC1419),IC50 (HCC1954),IC50 (BT-474),also measured
"CS(=O)(=O)CCNCc1ccc(-c2ccc3ncnc(Nc4ccc(OCc5cccc(F)c5)c(Cl)c4)c3c2)o1 [Compound A, N-{3-Chloro-4-[(3-fluorobenzyl)oxy]phenyl}-6-[5-({[2-(methanesulphonyl)ethyl]amino}methyl)-2-furyl]-4-quinazolinamine, reference compound]",0.105 ± 0.039 µM,> 10 µM,0.86 ± 0.039 µM,9.23 ± 3.83 µM,≤ 134 nM,900 to 1700 nM,1.12 ± 0.15 µM,≥ 6.8 µM,> 10 µM,0.077 ± 0.017 µM,1.73 ± 0.165 µM,0.134 ± 0.049 µM,"caspase 3/7 activity (BT474-J4; compound alone at 10 μM): slight increase in caspase 3/7 activity; caspase 3/7 activity (KPL-4; KPL4, 24 hours, compound alone at 10 μM): slight increase in caspase 3/7 activity; IC50 (BT474-J4, and MDA-MB-361): ≥ 9200 nM; caspase 3/7 activity (BT474; compound alone, dose response): increased caspase 3/7 activity in a dose dependent manner"
"Cn1ncc(Cl)c1-c1cc(C(=O)N[C@H](CN)Cc2cccc(F)c2)sc1Cl [Compound B, N-{(1S)-2-amino-1-[(3-fluorophenyl)methyl]ethyl}-5-chloro-4-(4-chloro-1-methyl-1H-pyrazol-5-yl)-2-thiophenecarboxamide]",4.19 ± 1.58 µM,0.7 µM,0.113 ± 0.012 µM,0.5 µM,≥ 2600 nM,500 to 3700 nM,0.505 ± 0.303 µM,≥ 6.8 µM,6.81 ± 2.13 µM,2.62 ± 0.548 µM,3.67 ± 2.97 µM,3.3 ± 1.1 µM,"caspase 3/7 activity (BT474-J4; compound alone at 1 μM): slightly increased caspase 3/7 activity; caspase 3/7 activity (KPL-4; KPL-4, 24 hours, compound alone at 1 μM): but not in the KPL-4 line; IC50 (MDA-MB-361): 0.758 ± 0.074 µM; caspase 3/7 activity (BT474; compound alone at 1 μM): slightly increased caspase 3/7 activity; IC50 (BT-474-J4): 0.67 ± 0.026 µM"

# Source: patent US20150073002A1, “COMBINATION” (GlaxoSmithKline LLC, priority 2010, published 2015)
